Measured values: the SangsterLogP compilation

logP | Structure (SMILES)
2.38 | CC1(C(=O)O)CCCCC1
2.19 | CCC(CC)CC(=O)O
2.31 | O=C(O)CC1CCCCC1
1.9 | CCC(C)(C)C(=O)O
2.57 | CCCC(CCC)C(=O)O

The remaining lines, values behind:

Structure (SMILES) | logP
CCCCC(CCCC)C(=O)O | 3.34
CCCC(CC(C)=O)C(=O)O (configuration not stated) | 1.31
CCCCCCCc1nn[nH]n1 | 2.01
C/C=C/C(=C\CC)C(=O)O | 2.27
CCC=C(CCC)C(=O)O | 2.44
CCCCN(CCCC)C(=O)CCC(=O)O | 2.3
CC(C)CCn1cnnn1 | 1.29
